In the supplement of paper PMC4977894:
± gives the standard deviation of the averaged measurements.

Key:
[1] = system: Homo sapiens (human subject panel, olfactory perception); test: perceived odor pleasantness rating (rating 0-100); higher = more pleasant
Procedure: (§1)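 Human olfactory psychophysics. 55 healthy subjects (after excluding 6 low performers) sniffed 1 mL of each odorant diluted in paraffin oil (vials, two dilutions per molecule, 20 molecules presented twice). Each subject rated intensity, pleasantness and familiarity on a 0-100 slider, starting at 50 and required to move. Ratings were given only when the subject reported detecting a smell; per-subject ratings are averaged over subjects.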

[2] = system: Homo sapiens (human subject panel, olfactory perception); test: perceived odor intensity rating (rating 0-100); higher = stronger perceived smell
Procedure: as §1

[3] = system: Homo sapiens (human subject panel, olfactory perception); test: perceived odor familiarity rating (rating 0-100); higher = more familiar
Procedure: as §1

[4] = odor dilution in paraffin oil: 1/10
[5] = odor dilution in paraffin oil: 1/1,000
[6] = odor dilution in paraffin oil: 1/100,000
[7] = odor dilution in paraffin oil: 1/10,000,000

| Structure (SMILES) | perceived odor pleasantness rating [1, 4] | perceived odor pleasantness rating [1, 5] | perceived odor intensity rating [2, 4] | perceived odor intensity rating [2, 5] | perceived odor familiarity rating [3, 4] | perceived odor familiarity rating [3, 5] | perceived odor pleasantness rating [1, 6] | perceived odor intensity rating [2, 6] | perceived odor familiarity rating [3, 6] | perceived odor pleasantness rating [1, 7] | perceived odor intensity rating [2, 7] | perceived odor familiarity rating [3, 7] |
| --- | --- | --- | --- | --- | --- | --- | --- | --- | --- | --- | --- | --- |
| CC(=O)OC/C=C(/C)CCC=C(C)C [Neryl acetate] | 49.9 ± 26 | 43 ± 18 | 67.2 ± 26 | 14.7 ± 20 | 49.1 ± 28 | 35.6 ± 28 |  |  |  |  |  |  |
| CCc1ccccc1 [ethylbenzene] |  | 35.2 ± 25 |  | 75.5 ± 22 |  | 51.4 ± 30 | 50.4 ± 19 | 23 ± 24 | 37 ± 33 |  |  |  |
| O=C(Cc1ccccc1)OCCc1ccccc1 [Phenethyl phenylacetate] |  | 53.4 ± 23 |  | 42.5 ± 33 |  | 32.8 ± 26 | 52.9 ± 23 | 17.2 ± 24 | 31.6 ± 32 |  |  |  |
| CCOC(=O)c1ccccc1 [Ethyl benzoate] |  | 57.1 ± 25 |  | 66.2 ± 24 |  | 50.5 ± 32 | 58.6 ± 24 | 38.4 ± 33 | 43.1 ± 30 |  |  |  |
| O=C1CCCO1 [4-Hydroxybutanoic acid lactone] |  | 28.9 ± 19 |  | 47 ± 34 |  | 44.6 ± 31 | 46.1 ± 25 | 19.9 ± 24 | 28.2 ± 30 |  |  |  |
| CCCCCCOC(=O)c1ccccc1 [Hexyl benzoate (replicate)] | 31.9 ± 24 | 40.3 ± 23 | 71.5 ± 26 | 35.9 ± 32 | 38.4 ± 28 | 36.7 ± 29 |  |  |  |  |  |  |
| C=CC(O)CCCC (centres undefined) [1-Hepten-3-ol] |  | 24.3 ± 25 |  | 83.2 ± 18 |  | 41 ± 31 | 37.3 ± 26 | 53.7 ± 31 | 44.4 ± 32 |  |  |  |
| O=C(Cc1ccccc1)Cc1ccccc1 [1,3-Diphenyl-2-propanone] |  | 32.7 ± 29 |  | 78.1 ± 20 |  | 49.7 ± 34 | 43 ± 27 | 35.4 ± 28 | 48.1 ± 30 |  |  |  |
| CCOC(=O)C1OC1(C)c1ccccc1 (centres undefined) [Ethyl 3-methyl-3-phenylglycidate] |  |  |  |  |  |  | 59.9 ± 25 | 48.2 ± 32 | 48 ± 30 | 53.4 ± 23 | 13.3 ± 28 | 28.4 ± 28 |
| OC1CCC2CCCCC2C1 (centres undefined) [Decahydro-2-naphthol] |  | 49.9 ± 26 |  | 54.8 ± 29 |  | 48.7 ± 29 | 50.6 ± 24 | 23.1 ± 27 | 36.3 ± 32 |  |  |  |
| CCCC(O)CC (centres undefined) [3-hexanol (replicate)] |  | 32.3 ± 22 |  | 68.9 ± 28 |  | 50.5 ± 34 | 46.6 ± 22 | 30.2 ± 30 | 34.2 ± 26 |  |  |  |
| CCCCCOC(C)=O [pentyl acetate] |  | 57.5 ± 32 |  | 64.8 ± 30 |  | 58.2 ± 33 | 57.6 ± 23 | 42.6 ± 28 | 45.2 ± 28 |  |  |  |
| CCCCCCCC(=O)OCCC(C)C [Isoamyl octanoate] | 50 ± 25 | 57.6 ± 22 | 62.8 ± 29 | 24.3 ± 28 | 45.2 ± 30 | 45.4 ± 32 |  |  |  |  |  |  |
| CCc1nccnc1C [2-Ethyl-3-methylpyrazine] |  | 31.2 ± 26 |  | 82.1 ± 17 |  | 55.7 ± 32 | 43.9 ± 29 | 70.5 ± 21 | 60 ± 31 |  |  |  |
| COc1cc(C(=O)O)ccc1O [4-hydroxy-3-methoxybenzoic acid] | 54.7 ± 28 | 44.1 ± 23 | 65.3 ± 26 | 28.8 ± 29 | 51.9 ± 29 | 45.4 ± 24 |  |  |  |  |  |  |
| CC1(C)C(=O)[C@@]2(C)CC[C@H]1C2 [l-fenchone] |  | 44.6 ± 28 |  | 64.5 ± 31 |  | 58.3 ± 31 | 49.3 ± 26 | 9.45 ± 15 | 33.1 ± 32 |  |  |  |
| O=C1CCSC1 [4,5-Dihydro-3(2H)-thiophenone] |  | 21.4 ± 26 |  | 85.8 ± 20 |  | 52.9 ± 34 | 33.2 ± 22 | 37 ± 34 | 30.8 ± 34 |  |  |  |

| Structure (SMILES) | perceived odor pleasantness rating [1, 4] | perceived odor pleasantness rating [1, 5] | perceived odor intensity rating [2, 4] | perceived odor intensity rating [2, 5] | perceived odor familiarity rating [3, 4] | perceived odor familiarity rating [3, 5] | perceived odor pleasantness rating [1, 6] | perceived odor intensity rating [2, 6] | perceived odor familiarity rating [3, 6] | perceived odor pleasantness rating [1, 7] | perceived odor intensity rating [2, 7] | perceived odor familiarity rating [3, 7] |
| --- | --- | --- | --- | --- | --- | --- | --- | --- | --- | --- | --- | --- |
| CCCCCC1CCCC(=O)O1 (centres undefined) [delta-Decalactone] |  | 69.3 ± 22 |  | 65.7 ± 28 |  | 62.5 ± 28 | 72.4 ± 20 | 52 ± 28 | 60.8 ± 29 |  |  |  |
| CC(=O)c1cc(C)sc1C [3-Acetyl-2,5-dimethylthiophene] |  | 27.7 ± 26 |  | 78.9 ± 20 |  | 47.4 ± 29 | 49.4 ± 29 | 19.4 ± 20 | 35.4 ± 30 |  |  |  |
| CCc1nc(C)cs1 [2-Ethyl-4-methylthiazole] |  | 16.6 ± 19 |  | 87 ± 15 |  | 43.6 ± 30 | 33.6 ± 24 | 73.1 ± 21 | 45.6 ± 29 |  |  |  |
| Cc1ccc(C(C)CC=O)o1 (centres undefined) [3-(5-Methyl-2-furyl)butanal] |  | 27.9 ± 24 |  | 74.3 ± 22 |  | 41.5 ± 32 | 41.6 ± 25 | 30.8 ± 30 | 36 ± 31 |  |  |  |
| CCC(=O)OC [Methyl Propionate] |  | 55.8 ± 27 |  | 38.7 ± 31 |  | 48.6 ± 31 | 55.7 ± 20 | 19 ± 23 | 32.6 ± 29 |  |  |  |
| CCC(=O)OC/C=C/c1ccccc1 [trans-Cinnamyl propionate] |  | 50.8 ± 23 |  | 46.3 ± 30 |  | 45.5 ± 29 | 46.9 ± 24 | 23.7 ± 29 | 36.7 ± 28 |  |  |  |
| CCCCCCCC=O [octanal] |  | 33.1 ± 22 |  | 66.7 ± 26 |  | 50.5 ± 31 | 65 ± 25 | 55 ± 28 | 62.9 ± 29 |  |  |  |
| C=C(C)[C@@H]1CC[C@@H](C)C[C@H]1O [(-)-Isopulegol] | 56.9 ± 27 | 45.1 ± 24 | 81.1 ± 17 | 24.4 ± 27 | 73.2 ± 29 | 37.8 ± 32 |  |  |  |  |  |  |
| CC12CCC(CC1)C(C)(C)O2 [1,8-cineole] |  | 62.5 ± 24 |  | 70.1 ± 24 |  | 69.7 ± 25 | 61.5 ± 25 | 45.5 ± 29 | 53.5 ± 30 |  |  |  |
| COC(OC)c1ccccc1 [Benzaldehyde dimethyl acetal] |  | 35 ± 24 |  | 68.6 ± 24 |  | 41.5 ± 31 | 49.9 ± 24 | 29.2 ± 25 | 38.7 ± 29 |  |  |  |
| CCCCCCCC(=O)OCC [Ethyl octanoate] |  | 66.2 ± 22 |  | 54.7 ± 29 |  | 52.7 ± 33 | 61.9 ± 22 | 46.7 ± 31 | 52 ± 29 |  |  |  |
| CCC(O)c1ccccc1 (centres undefined) [1-Phenyl-1-propanol] |  | 54 ± 20 |  | 36.6 ± 32 |  | 39.2 ± 31 | 48.9 ± 19 | 15.2 ± 22 | 25.5 ± 26 |  |  |  |
| COc1ccccc1O [Guaiacol] |  |  |  |  |  |  | 41.6 ± 26 | 61.8 ± 28 | 47.3 ± 31 | 40.9 ± 25 | 48.6 ± 32 | 39.4 ± 28 |
| CCCCCCCO [heptanol (replicate)] |  | 48.5 ± 29 |  | 72.2 ± 24 |  | 51.9 ± 33 | 58 ± 23 | 29.7 ± 30 | 39.9 ± 29 |  |  |  |
| CC1=CC(=O)CC(C)(C)C1=O [4-Oxoisophorone] |  | 47.7 ± 25 |  | 49.2 ± 26 |  | 49.7 ± 28 | 55 ± 21 | 34 ± 28 | 44.2 ± 28 |  |  |  |
| CCCC(O)CC(=O)OCC (centres undefined) [ethyl-3-hydroxyhexanoate] |  | 47.3 ± 27 |  | 60.3 ± 24 |  | 54.2 ± 28 | 54.4 ± 23 | 25.1 ± 27 | 40.1 ± 31 |  |  |  |
| C/C=C/C=C/COC(C)=O [trans,trans-2,4-Hexadienyl acetate] | 39.4 ± 25 | 51.3 ± 24 | 13.9 ± 24 | 22 ± 23 | 24.8 ± 27 | 35.5 ± 27 |  |  |  |  |  |  |
